{"source": "PubChem BioAssay AID1259410", "about": "(Chemical Carcinogenesis Research Information System (CCRIS), 2018)", "origin": "cited, not measured here", "system": "rodent tumor promotion studies, tumor incidence", "assay": "CCRIS tumor promotion studies"}
{"smiles": "Cn1c(N)nc2ncc(-c3ccccc3)cc21", "values": [{"measurement": "outcome", "setting": "Carcinogen: 3,2'-DIMETHYL-4-AMINOBIPHENYL, 13394-86-0, Doses [Carcinogen]: 50 MG/KG BW ONCE/2 WK FOR FIRST 20 WK (STUDY DURATION: 60 WK), Doses [Promoter]: 0, 100, 300 PPM IN DIET FOR 40 WK BEGINNING 20 WK POST CARCINOGEN TREATMENT (STUDY DURATION: 60 WK), Doses [Promoter]: 0, 100, 300 PPM IN DIET FOR 40 WK BEGINNING 20 WK POST CARCINOGEN TREATMENT (STUDY DURATION: 60 WK), Route [Carcinogen]: SUBCUTANEOUS, Route [Promoter]: ORAL, Species: RAT, Strain/Sex: F344/MALE", "result": "small intestine: adenocarcinoma"}, {"measurement": "outcome", "setting": "Carcinogen: AZOXYMETHANE [25843-45-2], Doses [Carcinogen]: 2 DOSES OF 15 MG/KG BW AT 1 WK INTERVALS STARTING AT 6 WKS OF AGE (STUDY DURATION: 36 WKS), Doses [Promoter]: 0, 0.001, 0.01, 0.1, 1, 10, 50, 200 PPM IN DIET FOR 34 WKS STARTING AFTER CARCINOGEN, Doses [Promoter]: 0, 0.001, 0.01, 0.1, 1, 10, 50, 200 PPM IN DIET FOR 34 WKS STARTING AFTER CARCINOGEN, Route [Carcinogen]: SUBCUTANEOUS, Route [Promoter]: ORAL (DIET), Species: RAT, Strain/Sex: F344/MALE", "result": "large intestine: adenomas and adenocarcinoma; only doses of 50 and 200 ppm were"}, {"measurement": "outcome", "setting": "Carcinogen: DIETHYLNITROSAMINE, 55-18-5, N-METHYL-N-NITROSOUREA, 684-93-5, N-BUTYL-N-(4-HYDROXYBUTYL)NITROSAMINE, 3817-11-6, 1,, Carcinogen: DIETHYLNITROSAMINE, 55-18-5, N-METHYL-N-NITROSOUREA, 684-93-5, N-BUTYL-N-(4-HYDROXYBUTYL)NITROSAMINE, 3817-11-6, 1,, Doses [Carcinogen]: 100 MG/KG BW DEN ONCE, 20 MG/KG BW MNU 4 TIMES, 0.05% BBN IN DRINKING WATER FOR FIRST 2 WK OF STUDY, 40 MG/KG DMH 4 TIME, Doses [Carcinogen]: 100 MG/KG BW DEN ONCE, 20 MG/KG BW MNU 4 TIMES, 0.05% BBN IN DRINKING WATER FOR FIRST 2 WK OF STUDY, 40 MG/KG DMH 4 TIME, Doses [Promoter]: 0, 60 PPM IN DIET FOR 24 WK BEGINNING AT WK 5 OF STUDY (STUDY DURATION: 29 WK), Route [Carcinogen]: INTRAPERITONEAL, INTRAPERITONEAL, ORAL, SUBCUTANEOUS, ORAL, Route [Carcinogen]: INTRAPERITONEAL, INTRAPERITONEAL, ORAL, SUBCUTANEOUS, ORAL, Route [Promoter]: ORAL, Species: RAT, Strain/Sex: F344/MALE", "result": "large intestine: adenocarcinoma"}, {"measurement": "outcome", "setting": "Carcinogen: DIETHYLNITROSAMINE, 55-18-5, N-METHYL-N-NITROSOUREA, 684-93-5, N-BUTYL-N-(4-HYDROXYBUTYL)NITROSAMINE, 3817-11-6, 1,, Carcinogen: DIETHYLNITROSAMINE, 55-18-5, N-METHYL-N-NITROSOUREA, 684-93-5, N-BUTYL-N-(4-HYDROXYBUTYL)NITROSAMINE, 3817-11-6, 1,, Doses [Carcinogen]: 100 MG/KG BW DEN ONCE, 20 MG/KG BW MNU 4 TIMES, 0.05% BBN IN DRINKING WATER FOR FIRST 2 WK OF STUDY, 40 MG/KG DMH 4 TIME, Doses [Carcinogen]: 100 MG/KG BW DEN ONCE, 20 MG/KG BW MNU 4 TIMES, 0.05% BBN IN DRINKING WATER FOR FIRST 2 WK OF STUDY, 40 MG/KG DMH 4 TIME, Doses [Promoter]: 0, 300 PPM IN DIET FOR 24 WK BEGINNING AT WK 5 OF STUDY (STUDY DURATION: 29 WK), Route [Carcinogen]: INTRAPERITONEAL, INTRAPERITONEAL, ORAL, SUBCUTANEOUS, ORAL, Route [Carcinogen]: INTRAPERITONEAL, INTRAPERITONEAL, ORAL, SUBCUTANEOUS, ORAL, Route [Promoter]: ORAL, Species: RAT, Strain/Sex: F344/MALE", "result": "small intestine: adenocarcinoma; large intestine: adenocarcinoma"}]}
{"smiles": "CC(=O)[C@H]1[C@H](C#N)C[C@H]2[C@@H]3CC=C4C[C@@H](O)CC[C@]4(C)[C@H]3CC[C@@]21C", "values": [{"measurement": "outcome", "setting": "Carcinogen: DIISOPROPANOLNITROSAMINE [53609-64-6], Doses [Carcinogen]: SINGLE DOSE OF 2.5 G/KG BW, Doses [Promoter]: 1000 PPM IN DIET BEGINNING 1 WK AFTER DIPN TREATMENT FOR 19 WKS (STUDY DURATION: 20 WKS), Route [Carcinogen]: SUBCUTANEOUS INJECTION, Route [Promoter]: DIET, Species: RAT, Strain/Sex: SPRAGUE-DAWLEY/MALE", "result": "thyroid: cystic adenoma, follicular adenoma, and follicular carcinoma"}]}
{"smiles": "ClC1(Cl)C2(Cl)C3(Cl)C4(Cl)C(Cl)(Cl)C5(Cl)C3(Cl)C1(Cl)C5(Cl)C24Cl", "note": "(stereo not given)", "values": [{"measurement": "outcome", "setting": "Carcinogen: 7,12-DIMETHYLBENZ[A]ANTHRACENE, 57-97-6, Doses [Carcinogen]: 200 NMOL IN 200 µL ACETONE ONCE, Doses [Promoter]: 0, 25, 50, 100, 200 NMOL IN 200 µL ACETONE 3/WK FOR 20 WK (STUDY DURATION: 20 WK), Doses [Promoter]: 0, 25, 50, 100, 200 NMOL IN 200 µL ACETONE 3/WK FOR 20 WK (STUDY DURATION: 20 WK), Route [Carcinogen]: DERMAL, Route [Promoter]: DERMAL, Species: MOUSE, Strain/Sex: CD-1/FEMALE", "result": "skin: tumor"}, {"measurement": "outcome", "setting": "Carcinogen: 7,12-DIMETHYLBENZ[A]ANTHRACENE, 57-97-6, Doses [Carcinogen]: 200 NMOL IN 200 µL ACETONE ONCE, Doses [Promoter]: 0, 25, 50, 100 NMOL IN 200 µL ACETONE 3/WK FOR 34 WK (STUDY DURATION: 34 WK), Doses [Promoter]: 0, 25, 50, 100 NMOL IN 200 µL ACETONE 3/WK FOR 34 WK (STUDY DURATION: 34 WK), Route [Carcinogen]: DERMAL, Route [Promoter]: DERMAL, Species: MOUSE, Strain/Sex: CD-1/FEMALE", "result": "skin: tumor"}, {"measurement": "outcome", "setting": "Carcinogen: 7,12-DIMETHYLBENZ[A]ANTHRACENE, 57-97-6, Doses [Carcinogen]: 200 NMOL IN 200 µL ACETONE ONCE, Doses [Promoter]: 0, 200 NMOL IN 200 µL ACETONE 2/WK FOR 20 WK BEGINNING 1 WK POST CARCINOGEN DOSE (STUDY DURATION: 21 WK), Route [Carcinogen]: DERMAL, Route [Promoter]: DERMAL, Species: MOUSE, Strain/Sex: CD-1/FEMALE", "result": "skin: tumors"}, {"measurement": "outcome", "setting": "Carcinogen: 7,12-DIMETHYLBENZ[A]ANTHRACENE, 57-97-6, Doses [Carcinogen]: 200 NMOL IN 200 µL ACETONE ONCE, Doses [Promoter]: 0, 200 NMOL IN 200 µL ACETONE 3/WK FOR 20 WK BEGINNING 1 WK POST CARCINOGEN DOSE (STUDY DURATION: 21 WK), Route [Carcinogen]: DERMAL, Route [Promoter]: DERMAL, Species: MOUSE, Strain/Sex: CD-1/FEMALE", "result": "skin: tumors"}, {"measurement": "outcome", "setting": "Carcinogen: 7,12-DIMETHYLBENZ[A]ANTHRACENE, 57-97-6, Doses [Carcinogen]: 200 NMOL IN 200 µL ACETONE ONCE, Doses [Promoter]: 0, 200 NMOL IN 200 µL ACETONE 3/WK FOR 20 WK BEGINNING 1 WK POST CARCINOGEN DOSE (STUDY DURATION: 21 WK), Route [Carcinogen]: DERMAL, Route [Promoter]: DERMAL, Species: MOUSE, Strain/Sex: CD-1/MALE", "result": "skin: tumors"}, {"measurement": "outcome", "setting": "Carcinogen: 7,12-DIMETHYLBENZ[A]ANTHRACENE, 57-97-6, Doses [Carcinogen]: 200 NMOL IN 200 µL ACETONE ONCE, Doses [Promoter]: 0, 200 NMOL IN 200 µL ACETONE 3/WK FOR 20 WK BEGINNING 4 WK POST CARCINOGEN DOSE ADMINISTERED TO OVARIECTOMIZED MICE (ST, Route [Carcinogen]: DERMAL, Route [Promoter]: DERMAL, Species: MOUSE, Strain/Sex: CD-1/FEMALE", "result": "skin: tumors"}]}
{"smiles": "Cc1ccccc1O", "values": [{"measurement": "outcome", "setting": "Carcinogen: 7,12-DIMETHYLBENZ(A)ANTHRACENE, Doses [Carcinogen]: DERMAL, Route [Carcinogen]: DERMAL, Route [Promoter]: DERMAL, Species: MOUSE, Strain/Sex: FEMALE", "result": "integumentary system (skin)"}]}
{"smiles": "CCCCCCCCCCCC1(CCCC(=O)OC2C(C)C3(O)C(C=C(CO)CC4(O)C(=O)C(C)=CC43)C3C(C)(C)C23OC(C)=O)OCC(C)(C)N1[O]", "note": "(stereo not given)", "values": [{"measurement": "outcome", "setting": "Carcinogen: 7,12-DIMETHYLBENZ[A]ANTHRACENE, 57-97-6, Doses [Carcinogen]: 100 NMOL ONCE, Doses [Promoter]: 0, 5 NMOL 2/WK FOR 24 WK BEGINNING 1 WK POST CARCINOGEN DOSE (STUDY DURATION: 25 WK), Route [Carcinogen]: DERMAL, Route [Promoter]: DERMAL, Species: MOUSE, Strain/Sex: NMRI/FEMALE", "result": "skin: tumor"}]}
{"smiles": "O=P(O)(O)OC1C(OP(=O)(O)O)C(OP(=O)(O)O)C(OP(=O)(O)O)C(OP(=O)(O)O)C1OP(=O)(O)O", "note": "(stereo not given)", "values": [{"measurement": "outcome", "setting": "Carcinogen: N-BUTYL-N-(4-HYDROXYBUTYL)NITROSAMINE, 3817-11-6, Doses [Carcinogen]: 0.05% IN DRINKING WATER FOR 4 WK, Doses [Promoter]: 0, 2% IN DIET BEGINNING POST CARCINOGEN TREATMENT AND CONTINUING FOR 32 WK (STUDY DURATION: 36 WK), Route [Carcinogen]: ORAL, Route [Promoter]: ORAL, Species: RAT, Strain/Sex: F344/MALE", "result": "urinary bladder: papilloma, carcinoma"}]}
{"smiles": "Cn1cnc([N+](=O)[O-])c1S", "values": [{"measurement": "outcome", "setting": "Carcinogen: UV IRRADIATION, Doses [Carcinogen]: 0.53 J/CM2 INCREASED BY 20% EVERY 2 WK TO 1.60 J/CM2 AND MAINTAINED AT 1.60 J/CM2 UNTIL DEATH, ADMINISTERED 5 D/WK FOR 1, Doses [Promoter]: 0, 15 UG/G BEGINNING 2 WK POST FIRST CARCINOGEN DOSE ADMINISTERED 2 HR PRIOR TO EACH CARCINOGEN DOSE (STUDY DURATION: 30, Route [Carcinogen]: DERMAL, Route [Promoter]: INTRAPERITONEAL, Species: MOUSE, Strain/Sex: SKH/HRL/FEMALE", "result": "skin: tumor"}]}
